# Laboratory results reported in US7378446B2, “Compound having anti-HCV activity and process for producing the same” (Chugai Seiyaku Kabushiki Kaisha, priority 2003, dated 2008).
# pIC50: −log10 of the molar value.
# Key:
# [1] = test system: Firefly luciferase HCV replicon cells (3-1); assay: Replicon assay (firefly luciferase HCV replicon); type: cell-based; settings: Hepatitis C virus, 72 h; Huh7-derived luciferase HCV replicon cells, 3 days culture with compound, Steady-Glo luminescence
# Procedure: (§1) A construct was prepared in which a luciferase gene derived from firefly was introduced as a reporter gene in HCV-RNA to assay the number of copies of HCV-RNA. The luciferase gene was introduced in the form of fusing with neomycin-resistance gene directly below the IRES (Internal Ribosome Entry Site) of the HCV gene in accordance with the method of Krieger, et al. (J. Virol. 75:4614). After synthesizing this RNA in vitro, it was introduced into Huh7 cell by electroporation and isolated as G418-resistant clone. Firefly luciferase HCV replicon cells (3-1) were suspended in Dulbecco's MEM (Gibco cat. no. 10569-010) containing 5% fetal bovine serum (Hyclone cat. no. SH30071.03), inoculated into the wells of a 96-well plate at 5000 cells/well and then cultured overnight at 37° C. and 5% CO2. Approximately 20 hours later, the diluted test compound was added at 10 μl per well followed by culturing for another 3 days. Two series of assay plates were prepared, and the assay was carried out using a white plate for one series and a clear plate for the other series. Following completion of culturing, the white plate was used for the Steady-Glo Luciferase Assay System (Promega cat. no. E2520). Namely, after adding 100 μl of reagent per well, mixing by a pipette 3 to 4 times and then allowing to stand for 5 minutes, luminescence was measured with the 1450 MicroBeta TRILUX (Wallac). Values obtained in the absence of cell addition were used as background values and subtracted from all values to calculate the IC50 (50% inhibitory concentration) of the drug based on a value of 0% inhibition for the value in the absence of addition of test compound.
# [2] = in vitro; type: cell-based; settings: human; replicon cells, 3 days culture with compound, Cell Counting Kit 8, absorbance 450 nm; read-out: Cytotoxicity CC50
# Procedure: as §1
# The Cell Counting Kit 8 (Dojindo cat. no. CK04) was used to determine the cytotoxicity. Namely, 10 μl of Cell Counting Kit 8 were added to a clear plate and incubated for 30 to 60 minutes at 37° C. Absorbance at a wavelength of 450 nm and a control wavelength of 630 nm was measured with a 96-well plate reader. Values in the absence of cell addition were used as background values and subtracted from all values to calculate the CC50 (50% cell inhibitory concentration) of the drug based on a value of 0% inhibition for the value in the absence of addition of drug.
Structure (SMILES),pIC50 [1],CC50 [2]
CCCCCCCC(=O)CCCCCC/C=C/[C@H](C(=O)N[C@@H](Cc1ccc(Oc2cccc(C)c2)cc1)C(=O)O)[C@@](O)(CC(=O)O)C(=O)O [Compound 56],8.22,> 1000 nM
CCCCCCCC(=O)CCCCCC/C=C/[C@H](C(=O)N[C@@H](Cc1ccc(Oc2cccc(C(F)(F)F)c2)cc1)C(=O)O)[C@@](O)(CC(=O)O)C(=O)O [Compound 57],7.96,> 1000 nM
CCCCCCCC(=O)CCCCCC/C=C/[C@H](C(=O)N[C@@H](Cc1ccc(-c2ccc(OC)cc2)cc1)C(=O)O)[C@@](O)(CC(=O)O)C(=O)O [Compound 58],8.40,> 1000 nM
CCCCCCCC(=O)CCCCCC/C=C/[C@H](C(=O)N[C@@H](Cc1ccc(-c2ccc(C)cc2)cc1)C(=O)O)[C@@](O)(CC(=O)O)C(=O)O [Compound 59],8.52,> 1000 nM
CCCCCCCC(=O)CCCCCC/C=C/[C@H](C(=O)N[C@@H](Cc1ccc(-c2ccc(C(F)(F)F)cc2)cc1)C(=O)O)[C@@](O)(CC(=O)O)C(=O)O [Compound 60],8.10,> 1000 nM
CCCCCCCC(=O)CCCCCC/C=C/[C@H](C(=O)N[C@@H](Cc1ccc(-c2cccc(C)c2)cc1)C(=O)O)[C@@](O)(CC(=O)O)C(=O)O [Compound 61],8.22,> 1000 nM
CCCCCCCC(=O)CCCCCC/C=C/[C@H](C(=O)N[C@@H](Cc1ccc(-c2cccc(OC)c2)cc1)C(=O)O)[C@@](O)(CC(=O)O)C(=O)O [Compound 62],8.70,> 1000 nM
CCCCCCCC(=O)CCCCCC/C=C/[C@H](C(=O)N[C@@H](Cc1ccc(-c2cccc(C(F)(F)F)c2)cc1)C(=O)O)[C@@](O)(CC(=O)O)C(=O)O [Compound 63],8.00,> 1000 nM
CCCCCCCC(=O)CCCCCC/C=C/[C@H](C(=O)N[C@@H](Cc1ccc(Oc2cccc(F)c2)cc1)C(=O)O)[C@@](O)(CC(=O)O)C(=O)O [Compound 64],8.15,> 1000 nM
CCCCCCCC(=O)CCCCCC/C=C/[C@H](C(=O)N[C@@H](Cc1ccc(-c2ccccc2F)cc1)C(=O)O)[C@@](O)(CC(=O)O)C(=O)O [Compound 65],8.70,> 1000 nM
CCCCCCCC(=O)CCCCCC/C=C/[C@H](C(=O)N[C@@H](Cc1ccc(-c2cccc(F)c2)cc1)C(=O)O)[C@@](O)(CC(=O)O)C(=O)O [Compound 66],8.22,> 1000 nM
CCCCCCCC(=O)CCCCCC/C=C/[C@H](C(=O)N[C@@H](Cc1ccc(Oc2ccc(N(C)C)cc2)cc1)C(=O)O)[C@@](O)(CC(=O)O)C(=O)O [Compound 67],8.40,> 1000 nM
CCCCCCCC(=O)CCCCCC/C=C/[C@H](C(=O)N[C@@H](Cc1ccc(-c2ccc(N(C)C)cc2)cc1)C(=O)O)[C@@](O)(CC(=O)O)C(=O)O [Compound 68],8.70,> 1000 nM
CCCCCCCC(=O)CCCCCC/C=C/[C@H](C(=O)N[C@@H](Cc1ccc(Nc2ccccc2)cc1)C(=O)O)[C@@](O)(CC(=O)O)C(=O)O [Compound 69],8.70,> 1000 nM
CCCCCCCC(=O)CCCCCC/C=C/[C@H](C(=O)N[C@@H](Cc1ccc(Oc2ccc(C#N)cc2)cc1)C(=O)O)[C@@](O)(CC(=O)O)C(=O)O [Compound 70],7.96,> 1000 nM
CCCCCCCC(=O)CCCCCC/C=C/[C@H](C(=O)N[C@@H](Cc1ccc(-c2ccc(C#N)cc2)cc1)C(=O)O)[C@@](O)(CC(=O)O)C(=O)O [Compound 71],8.40,> 1000 nM
CCCCCCCC(=O)CCCCCC/C=C/[C@H](C(=O)N[C@@H](Cc1ccc(N2CCOCC2)cc1)C(=O)O)[C@@](O)(CC(=O)O)C(=O)O [Compound 72],8.22,> 1000 nM
CCCCCCCC(=O)CCCCCC/C=C/[C@H](C(=O)N[C@@H](Cc1ccc(-c2ccc(OC)nc2)cc1)C(=O)O)[C@@](O)(CC(=O)O)C(=O)O [Compound 73],8.70,> 1000 nM
CCCCCCCC(=O)CCCCCC/C=C/[C@H](C(=O)N[C@@H](Cc1ccc(-c2ccc(S(=O)(=O)N(C)C)cc2)cc1)C(=O)O)[C@@](O)(CC(=O)O)C(=O)O [Compound 74],6.87,> 1000 nM
CCCCCCCC(=O)CCCCCC/C=C/[C@H](C(=O)N[C@@H](Cc1ccc(N(C)c2ccccc2)cc1)C(=O)O)[C@@](O)(CC(=O)O)C(=O)O [Compound 75],8.22,> 1000 nM

Structure (SMILES),pIC50 [1],CC50 [2]
CCCCCCCC(=O)CCCCCC/C=C/[C@H](C(=O)N[C@@H](Cc1ccc(-c2cncnc2)cc1)C(=O)O)[C@@](O)(CC(=O)O)C(=O)O [Compound 76],7.89,> 1000 nM
CCCCCCCC(=O)CCCCCC/C=C/[C@H](C(=O)N[C@@H](Cc1ccc(-c2ccc(SC)cc2)cc1)C(=O)O)[C@@](O)(CC(=O)O)C(=O)O [Compound 77],8.15,> 1000 nM
CCCCCCCC(=O)CCCCCC/C=C/[C@H](C(=O)N[C@@H](Cc1ccc(-c2cncc(OC)c2)cc1)C(=O)O)[C@@](O)(CC(=O)O)C(=O)O [Compound 78],8.52,> 1000 nM
CCCCCCCC(=O)CCCCCC/C=C/[C@H](C(=O)N[C@@H](Cc1ccc(-c2c(C)noc2C)cc1)C(=O)O)[C@@](O)(CC(=O)O)C(=O)O [Compound 79],6.98,> 1000 nM
CCCCCCCC(=O)CCCCCC/C=C/[C@H](C(=O)N[C@@H](Cc1ccc(-c2ccc(S(C)(=O)=O)cc2)cc1)C(=O)O)[C@@](O)(CC(=O)O)C(=O)O [Compound 80],7.15,> 1000 nM
CCCCCCCC(=O)CCCCCC/C=C/[C@H](C(=O)N[C@@H](Cc1ccc(-c2cnc(OC)nc2)cc1)C(=O)O)[C@@](O)(CC(=O)O)C(=O)O [Compound 81],8.10,> 1000 nM
CCCCCCCC(=O)CCCCCC/C=C/[C@H](C(=O)N[C@@H](Cc1ccc(OCCCN)cc1)C(=O)O)[C@@](O)(CC(=O)O)C(=O)O [Compound 82],7.41,> 1000 nM
CCCCCCCC(=O)CCCCCC/C=C/[C@H](C(=O)N[C@@H](Cc1ccc(OC2CCN(C)CC2)cc1)C(=O)O)[C@@](O)(CC(=O)O)C(=O)O [Compound 83],6.97,> 1000 nM
CCCCCCCC(=O)CCCCCC/C=C/[C@H](C(=O)N[C@@H](Cc1ccc(OCCCN(C)C)cc1)C(=O)O)[C@@](O)(CC(=O)O)C(=O)O [Compound 84],7.37,> 1000 nM
CCCCCCCC(=O)CCCCCC/C=C/[C@H](C(=O)N[C@@H](Cc1ccc(OCc2cccnc2)cc1)C(=O)O)[C@@](O)(CC(=O)O)C(=O)O [Compound 85],9.00,> 1000 nM
CCCCCCCC(=O)CCCCCC/C=C/[C@H](C(=O)N[C@@H](Cc1ccc(OCCN2CCOCC2)cc1)C(=O)O)[C@@](O)(CC(=O)O)C(=O)O [Compound 86],8.15,> 1000 nM
CCCCCCCC(=O)CCCCCC/C=C/[C@H](C(=O)N[C@@H](Cc1ccc(OCCN2CCNCC2)cc1)C(=O)O)[C@@](O)(CC(=O)O)C(=O)O [Compound 87],7.42,> 1000 nM
CCCCCCCC(=O)CCCCCC/C=C/[C@H](C(=O)N[C@@H](Cc1ccc(OCCCNCc2cccnc2)cc1)C(=O)O)[C@@](O)(CC(=O)O)C(=O)O [Compound 88],7.74,> 1000 nM
CCCCCCCC(=O)CCCCCC/C=C/[C@H](C(=O)N[C@@H](Cc1ccc(OCCCN2CCN(C)CC2)cc1)C(=O)O)[C@@](O)(CC(=O)O)C(=O)O [Compound 89],7.54,> 1000 nM
CCCCCCCC(=O)CCCCCC/C=C/[C@H](C(=O)N[C@@H](Cc1ccc(N=[N+]=[N-])cc1)C(=O)O)[C@@](O)(CC(=O)O)C(=O)O [Compound 90],8.22,> 1000 nM
CCCCCCCC(=O)CCCCCC/C=C/[C@H](C(=O)N[C@@H](Cc1ccc(CNC(=O)OCC2c3ccccc3-c3ccccc32)cc1)C(=O)O)[C@@](O)(CC(=O)O)C(=O)O [Compound 91],8.10,> 1000 nM
CCCCCCCC(=O)CCCCCC/C=C/[C@H](C(=O)N[C@@H](Cc1ccc(NS(C)(=O)=O)cc1)C(=O)O)[C@@](O)(CC(=O)O)C(=O)O [Compound 92],8.70,> 1000 nM
CCCCCCCC(=O)CCCCCC/C=C/[C@H](C(=O)N[C@@H](Cc1ccc(NC(C)=O)cc1)C(=O)O)[C@@](O)(CC(=O)O)C(=O)O [Compound 93],7.92,> 1000 nM
CCCCCCCC(=O)CCCCCC/C=C/[C@H](C(=O)N[C@@H](Cc1ccc(CN)cc1)C(=O)O)[C@@](O)(CC(=O)O)C(=O)O [Compound 94],6.55,> 1000 nM
CCCCCCCC(=O)CCCCCC/C=C/[C@H](C(=O)N[C@@H](Cc1ccc(NC(=N)N)cc1)C(=O)O)[C@@](O)(CC(=O)O)C(=O)O [Compound 95],6.40,> 1000 nM
